According to patent US20100041089A1, “IMPROVED METHOD FOR DETECTING CHEMICAL […]” (priority 2006, published 2010):

System: yeast genes (expressed mRNA)
Experiment: DNA chip measurement of expressed mRNA of yeast genes after culture with a toxic chemical substance
Type: cell-based, Saccharomyces cerevisiae S288C
Procedure, shortened: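 Two-hour exposure of growing S. cerevisiae S288C (YPD, 25° C) to a sublethal toxicant preceded RNA isolation. Fluorescent cDNA was hybridized to a whole-genome array; a treated-to-untreated signal ratio of two or more was taken as significant.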

SMILES: CCCCC[C@H](O)CC(=O)CCc1ccc(O)c(OC)c1 [(13), Gingerol]
- The level of expressed mRNA in the presence of chemical substance/The level of expressed mRNA in the absence of chemical substance, yeast gene YDL067C (gene YDL067C (mitochondria-located protein gene), yeast cultured two hours with chemical substance, DNA chip fluorescence ratio to control): 0.6
- The level of expressed mRNA in the presence of chemical substance/The level of expressed mRNA in the absence of chemical substance, yeast gene YDR079W (gene YDR079W (mitochondria-located protein gene), yeast cultured two hours with chemical substance, DNA chip fluorescence ratio to control): 1.3
- level of expressed mRNA in the presence of chemical substance / level in the absence of chemical substance (yeast gene YAL018C, cultured two hours with the chemical substance): 1.3
- The level of expressed mRNA in the presence of chemical substance/The level of expressed mRNA in the absence of chemical substance (yeast gene YAR028W, cultured two hours with substance): 1.4
- level of expressed mRNA in the presence of chemical substance / level in the absence of chemical substance (yeast gene YAR047C, cultured two hours with the chemical substance): 1.4
- level of expressed mRNA in the presence of chemical substance / level in the absence of chemical substance (yeast gene YAR064W, cultured two hours with the chemical substance): 1.1
- level of expressed mRNA in the presence of chemical substance / level in the absence of chemical substance (yeast gene YBL044W, cultured two hours with the chemical substance): 0.7
- The level of expressed mRNA in the presence of chemical substance/The level of expressed mRNA in the absence of chemical substance (yeast gene YBL048W, cultured two hours with substance): 2.7
- level of expressed mRNA in the presence of chemical substance / level in the absence of chemical substance (yeast gene YBR012C, cultured two hours with the chemical substance): 2.1
- The level of expressed mRNA in the presence of chemical substance/The level of expressed mRNA in the absence of chemical substance (yeast gene YBR047W, cultured two hours with substance): 1.7
- The level of expressed mRNA in the presence of chemical substance/The level of expressed mRNA in the absence of chemical substance (yeast gene YBR062C, cultured two hours with substance): 2.8
- level of expressed mRNA in the presence of chemical substance / level in the absence of chemical substance (yeast gene YBR066C, cultured two hours with the chemical substance): 0.6
- level of expressed mRNA in the presence of chemical substance / level in the absence of chemical substance (yeast gene YBR124W, cultured two hours with the chemical substance): 0.9
- level of expressed mRNA in the presence of chemical substance / level in the absence of chemical substance (yeast gene YBR162C, cultured two hours with the chemical substance): 0.7
- The level of expressed mRNA in the presence of chemical substance/The level of expressed mRNA in the absence of chemical substance (yeast gene YBR185C, mitochondria-located protein gene, cultured two hours with substance): 1.0
- level of expressed mRNA in the presence of chemical substance / level in the absence of chemical substance (yeast gene YBR287W, cultured two hours with the chemical substance): 3.4
- level of expressed mRNA in the presence of chemical substance / level in the absence of chemical substance (yeast gene YCL042W, cultured two hours with the chemical substance): 7.5
- level of expressed mRNA in the presence of chemical substance / level in the absence of chemical substance (yeast gene YCL056C, cultured two hours with the chemical substance): 1.3
- level of expressed mRNA in the presence of chemical substance / level in the absence of chemical substance (yeast gene YCR007C, cultured two hours with the chemical substance): 1.5
- The level of expressed mRNA in the presence of chemical substance/The level of expressed mRNA in the absence of chemical substance (yeast gene YCR030C, cultured two hours with the chemical substance): 1.7
- level of expressed mRNA in the presence of chemical substance / level in the absence of chemical substance (yeast gene YDL046W, cultured two hours with the chemical substance): 1.5
- The level of expressed mRNA in the presence of chemical substance/The level of expressed mRNA in the absence of chemical substance (yeast gene YDL174C, cultured for two hours with substance): 5.9
- The level of expressed mRNA in the presence of chemical substance/The level of expressed mRNA in the absence of chemical substance (yeast gene YDR001C, cultured for two hours with substance): 2.8
- level of expressed mRNA in the presence of chemical substance / level in the absence of chemical substance (yeast gene YDR090C, cultured two hours with the chemical substance): 0.8
- level of expressed mRNA in the presence of chemical substance / level in the absence of chemical substance (yeast gene YDR128W, cultured two hours with the chemical substance): 1.1
- level of expressed mRNA in the presence of chemical substance / level in the absence of chemical substance (yeast gene YDR133C, cultured two hours with the chemical substance): 0.1
- The level of expressed mRNA in the presence of chemical substance/The level of expressed mRNA in the absence of chemical substance (yeast gene YDR214W, cultured two hours with substance): 5.3
- level of expressed mRNA in the presence of chemical substance / level in the absence of chemical substance (yeast gene YDR250C, cultured two hours with the chemical substance): 1.2
- level of expressed mRNA in the presence of chemical substance / level in the absence of chemical substance (yeast gene YDR278C, cultured two hours with the chemical substance): 0.7
- level of expressed mRNA in the presence of chemical substance / level in the absence of chemical substance (yeast gene YDR281C, cultured two hours with the chemical substance): 0.7
- level of expressed mRNA in the presence of chemical substance / level in the absence of chemical substance (yeast gene YDR366C, cultured two hours with the chemical substance): 0.8
- The level of expressed mRNA in the presence of chemical substance/The level of expressed mRNA in the absence of chemical substance (yeast gene YDR377W, mitochondria-located protein gene, cultured two hours with substance): 0.7
- The level of expressed mRNA in the presence of chemical substance/The level of expressed mRNA in the absence of chemical substance (yeast gene YDR486C, cultured two hours with substance): 1.7
- The level of expressed mRNA in the presence of chemical substance/The level of expressed mRNA in the absence of chemical substance (yeast gene YDR506C): 0.3
- The level of expressed mRNA in the presence of chemical substance/The level of expressed mRNA in the absence of chemical substance (yeast gene YDR533C, cultured two hours with substance): 3.0
- The level of expressed mRNA in the presence of chemical substance/The level of expressed mRNA in the absence of chemical substance (yeast gene YEL024W, mitochondria-located protein gene, cultured two hours with substance): 0.6
- The level of expressed mRNA in the presence of chemical substance/The level of expressed mRNA in the absence of chemical substance (yeast gene YER037W, cultured two hours with substance): 3.0
- The level of expressed mRNA in the presence of chemical substance/The level of expressed mRNA in the absence of chemical substance (yeast gene YER079W, cultured two hours with substance): 2.1
- The level of expressed mRNA in the presence of chemical substance/The level of expressed mRNA in the absence of chemical substance (yeast gene YFL014W, DNA repair protein genes, cultured two hours with substance): 15.2
- The level of expressed mRNA in the presence of chemical substance/The level of expressed mRNA in the absence of chemical substance (yeast gene YFL032W, cultured two hours with substance): 2.4
- The level of expressed mRNA in the presence of chemical substance/The level of expressed mRNA in the absence of chemical substance (yeast gene YFL044C, cultured two hours with substance): 4.7
- The level of expressed mRNA in the presence of chemical substance/The level of expressed mRNA in the absence of chemical substance (yeast gene YFR017C, cultured two hours with substance): 1.7
- level of expressed mRNA in the presence of chemical substance / level in the absence of chemical substance (yeast gene YFR026C, cultured two hours with the chemical substance): 1.1
- The level of expressed mRNA in the presence of chemical substance/The level of expressed mRNA in the absence of chemical substance (yeast gene YFR044C, cultured two hours with substance): 3.1
- The level of expressed mRNA in the presence of chemical substance/The level of expressed mRNA in the absence of chemical substance (yeast gene YGL037C, cultured two hours with substance): 2.3
- level of expressed mRNA in the presence of chemical substance / level in the absence of chemical substance (yeast gene YGL088W, cultured two hours with the chemical substance): 0.7
- The level of expressed mRNA in the presence of chemical substance/The level of expressed mRNA in the absence of chemical substance (yeast gene YGL187C, mitochondria-located protein gene, cultured two hours with substance): 0.7
- The level of expressed mRNA in the presence of chemical substance/The level of expressed mRNA in the absence of chemical substance (yeast gene YGL191W, mitochondria-located protein gene, cultured two hours with substance): 1.1
- level of expressed mRNA in the presence of chemical substance / level in the absence of chemical substance (yeast gene YGR038W, cultured two hours with the chemical substance): 1.2
- The level of expressed mRNA in the presence of chemical substance/The level of expressed mRNA in the absence of chemical substance (yeast gene YGR043C, cultured for two hours with substance): 6.9
- The level of expressed mRNA in the presence of chemical substance/The level of expressed mRNA in the absence of chemical substance (yeast gene YGR101W, cultured two hours with substance): 2.4
- The level of expressed mRNA in the presence of chemical substance/The level of expressed mRNA in the absence of chemical substance (yeast gene YGR110W, cultured two hours with substance): 3.6
- level of expressed mRNA in the presence of chemical substance / level in the absence of chemical substance (yeast gene YGR139W, cultured two hours with the chemical substance): 0.4
- The level of expressed mRNA in the presence of chemical substance/The level of expressed mRNA in the absence of chemical substance (yeast gene YGR146C, cultured two hours with substance): 1.7
- The level of expressed mRNA in the presence of chemical substance/The level of expressed mRNA in the absence of chemical substance (yeast gene YGR154C, cultured two hours with substance): 2.5
- The level of expressed mRNA in the presence of chemical substance/The level of expressed mRNA in the absence of chemical substance (yeast gene YGR161C, cultured two hours with substance): 2.8
- The level of expressed mRNA in the presence of chemical substance/The level of expressed mRNA in the absence of chemical substance (yeast gene YGR231C, DNA repair protein genes, cultured two hours with substance): 3.9
- level of expressed mRNA in the presence of chemical substance / level in the absence of chemical substance (yeast gene YGR243W, cultured two hours with the chemical substance): 1.1
- The level of expressed mRNA in the presence of chemical substance/The level of expressed mRNA in the absence of chemical substance (yeast gene YGR256W, cultured for two hours with substance): 3.9
- The level of expressed mRNA in the presence of chemical substance/The level of expressed mRNA in the absence of chemical substance (yeast gene YGR268C, cultured two hours with substance): 2.8
- level of expressed mRNA in the presence of chemical substance / level in the absence of chemical substance (yeast gene YGR293C, cultured two hours with the chemical substance): 0.7
- level of expressed mRNA in the presence of chemical substance / level in the absence of chemical substance (yeast gene YHL006C, cultured two hours with the chemical substance): 1.1
- level of expressed mRNA in the presence of chemical substance / level in the absence of chemical substance (yeast gene YHR095W, cultured two hours with the chemical substance): 0.7
- level of expressed mRNA in the presence of chemical substance / level in the absence of chemical substance (yeast gene YHR105W, cultured two hours with the chemical substance): 1.4
- level of expressed mRNA in the presence of chemical substance / level in the absence of chemical substance (yeast gene YHR181W, cultured two hours with the chemical substance): 0.7
- The level of expressed mRNA in the presence of chemical substance/The level of expressed mRNA in the absence of chemical substance (yeast gene YHR199C, cultured two hours with substance): 2.1
- The level of expressed mRNA in the presence of chemical substance/The level of expressed mRNA in the absence of chemical substance (yeast gene YIL087C, cultured two hours with substance): 2.4
- The level of expressed mRNA in the presence of chemical substance/The level of expressed mRNA in the absence of chemical substance (yeast gene YIL122W, cultured two hours with the chemical substance): 0.7
- level of expressed mRNA in the presence of chemical substance / level in the absence of chemical substance (yeast gene YIL127C, cultured two hours with the chemical substance): 0.4
- level of expressed mRNA in the presence of chemical substance / level in the absence of chemical substance (yeast gene YJL017W, cultured two hours with the chemical substance): 1.5
- level of expressed mRNA in the presence of chemical substance / level in the absence of chemical substance (yeast gene YJL037W, cultured two hours with the chemical substance): 1.1
- The level of expressed mRNA in the presence of chemical substance/The level of expressed mRNA in the absence of chemical substance (yeast gene YJL057C, cultured two hours with substance): 2.5
- The level of expressed mRNA in the presence of chemical substance/The level of expressed mRNA in the absence of chemical substance (yeast gene YJL082W, cultured two hours with substance): 2.1
- level of expressed mRNA in the presence of chemical substance / level in the absence of chemical substance (yeast gene YJL097W, cultured two hours with the chemical substance): 0.7
- The level of expressed mRNA in the presence of chemical substance/The level of expressed mRNA in the absence of chemical substance (yeast gene YJL144W, cultured two hours with substance): 3.9
- The level of expressed mRNA in the presence of chemical substance/The level of expressed mRNA in the absence of chemical substance (yeast gene YJL151C, cultured two hours with substance): 2.4
- The level of expressed mRNA in the presence of chemical substance/The level of expressed mRNA in the absence of chemical substance (yeast gene YJL161W, cultured two hours with substance): 2.5
- level of expressed mRNA in the presence of chemical substance / level in the absence of chemical substance (yeast gene YJR030C, cultured two hours with the chemical substance): 0.7
- The level of expressed mRNA in the presence of chemical substance/The level of expressed mRNA in the absence of chemical substance (yeast gene YJR046W, DNA repair protein genes, cultured two hours with substance): 3.0
- The level of expressed mRNA in the presence of chemical substance/The level of expressed mRNA in the absence of chemical substance (yeast gene YJR074W, cultured two hours with substance): 2.8
- The level of expressed mRNA in the presence of chemical substance/The level of expressed mRNA in the absence of chemical substance (yeast gene YJR121W, mitochondria-located protein gene, cultured two hours with substance): 1.0
- The level of expressed mRNA in the presence of chemical substance/The level of expressed mRNA in the absence of chemical substance (yeast gene YJR123W): 0.1
- level of expressed mRNA in the presence of chemical substance / level in the absence of chemical substance (yeast gene YKL051W, cultured two hours with the chemical substance): 1.2
